Values of other authors, collected in patent publication US9180194B2, “Method and composition for transdermal drug delivery” (Acrux DDS Pty Ltd, priority 2005, dated 2015).

Conditions: continuous trans-scrotal delivery

Question: Which “levels of DHT and DHT/testosterone ratios relative to normal” value does the source give for `C[C@]12CC[C@H]3[C@@H](CCC4=CC(=O)CC[C@@]43C)[C@@H]1CC[C@@H]2O` [testosterone] here?
Answer: 4 to 5 fold
